Measurements reported in patent US6531477B1, “6-substituted pyrazolo [3,4-d] pyrimidin-4-ones useful as cyclin dependent kinase inhibitors” (DuPont Pharmaceuticals Company, priority 1998, dated 2003).

Structure (SMILES)	melting point
CCc1[nH]n(-c2c(Cl)cc(Cl)cc2Cl)c2nc(C(O)c3ccccc3)nc(=O)c1-2 (racemic) [Example 117, (+/−)-1-(2,4,6-Trichlorophenyl)-3-ethyl-6-(α-hydroxybenzyl)pyrazolo[3,4-d]pyrimidin-4-one]	246 to 248 °C
COc1cccc(Cc2nc3n(-c4c(Cl)cc(Cl)cc4Cl)[nH]c(SC)c-3c(=O)n2)c1 [Example 1, 1-(2,4,6-Trichlorophenyl)-3-(methylthio)-6-(3-methoxybenzyl)pyrazolo[3,4-d]pyrimidin-4-one]	245 to 248 °C
CSc1[nH]n(-c2c(Cl)cc(Cl)cc2Cl)c2nc(Cc3cccc(O)c3)nc(=O)c1-2 [Example 2, 1-(2,4,6-Trichlorophenyl)-3-(methylthio)-6-(3-hydroxybenzyl)pyrazolo[3,4-d]pyrimidin-4-one]	264 to 266 °C
CSc1nn(-c2c(Cl)cc(Cl)cc2Cl)c2nc(Cc3ccncc3)[nH]c(=O)c12 [Example 5]	283 to 287 °C
COc1ccc(Cc2nc3c(c(SC)nn3-c3c(Cl)cc(Cl)cc3Cl)c(=O)[nH]2)cc1OC [Example 6]	226 to 230 °C
CSc1nn(-c2c(Cl)cc(Cl)cc2Cl)c2nc(Cc3cccc([N+](=O)[O-])c3)[nH]c(=O)c12 [Example 7]	243 to 255 °C
COc1ccc(Cc2nc3c(c(SC)nn3-c3c(Cl)cc(Cl)cc3Cl)c(=O)[nH]2)cc1 [Example 8]	263 to 267 °C
CSc1nn(-c2c(Cl)cc(Cl)cc2Cl)c2nc(Cc3ccc(O)cc3)[nH]c(=O)c12 [Example 9]	294 to 296 °C
CSc1nn(-c2c(Cl)cc(Cl)cc2Cl)c2nc(Cc3ccc4c(c3)OCO4)[nH]c(=O)c12 [Example 13]	257 to 260 °C
CCc1nn(-c2c(Cl)cc(Cl)cc2Cl)c2nc(Cc3c[nH]c4ccccc34)[nH]c(=O)c12 [Example 18]	296 to 299 °C
CCc1nn(-c2c(Cl)cc(Cl)cc2Cl)c2nc(Cc3cc(OC)c(OC)c(OC)c3)[nH]c(=O)c12 [Example 24]	224 to 226 °C
CCc1nn(-c2c(Cl)cc(Cl)cc2Cl)c2nc(Cc3ccc(O)c([N+](=O)[O-])c3)[nH]c(=O)c12 [Example 26]	263 to 266 °C
CCc1nn(-c2c(Cl)cc(Cl)cc2Cl)c2nc(Cc3c[nH]c4ccc(OC)cc34)[nH]c(=O)c12 [Example 40]	295 to 298 °C
CCc1nn(-c2c(Cl)cc(Cl)cc2Cl)c2nc(Cc3cccc(CC(=O)O)c3)[nH]c(=O)c12 [Example 47]	192 to 194 °C
CC(C)c1nn(-c2c(Cl)cc(Cl)cc2Cl)c2nc(Cc3ccc(N)cc3)[nH]c(=O)c12 [Example 52]	223 to 225 °C
COc1cc(Cc2nc3c(c(C(C)C)nn3-c3c(Cl)cc(Cl)cc3Cl)c(=O)[nH]2)ccc1N [Example 54]	238 to 240 °C
CC(C)c1nn(-c2c(Cl)cc(Cl)cc2Cl)c2nc(Cc3ccc(N)c(O)c3)[nH]c(=O)c12 [Example 55]	210 to 217 °C (dec.)
CC(C)c1nn(-c2c(Cl)cc(Cl)cc2Cl)c2nc(Cc3ccc(Br)cc3)[nH]c(=O)c12 [Example 59]	229 to 230 °C
CC(C)c1nn(-c2c(Cl)cc(Cl)cc2Cl)c2nc(Cc3ccccn3)[nH]c(=O)c12 [Example 60]	214 to 215 °C
CC(C)c1nn(-c2c(Cl)cc(Cl)cc2Cl)c2nc(Cc3ccncc3)[nH]c(=O)c12 [Example 61]	273 to 275 °C

Structure (SMILES)	melting point
Cc1ccc(Cc2nc3c(c(C(C)C)nn3-c3c(Cl)cc(Cl)cc3Cl)c(=O)[nH]2)cc1 [Example 62]	205 to 206 °C
Cc1ccccc1Cc1nc2c(c(C(C)C)nn2-c2c(Cl)cc(Cl)cc2Cl)c(=O)[nH]1 [Example 63]	194 to 195 °C
CC(C)c1nn(-c2c(Cl)cc(Cl)cc2Cl)c2nc(Cc3cccnc3)[nH]c(=O)c12 [Example 64]	214 to 215 °C
Cc1ccncc1Cc1nc2c(c(C(C)C)nn2-c2c(Cl)cc(Cl)cc2Cl)c(=O)[nH]1 [Example 65]	225 to 227 °C
CNc1ccc(Cc2nc3c(c(C(C)C)nn3-c3c(Cl)cc(Cl)cc3Cl)c(=O)[nH]2)cc1 [Example 67]	244 to 246 °C
CC(C)c1nn(-c2c(Cl)cc(Cl)cc2Cl)c2nc(Cc3cnccc3Cl)[nH]c(=O)c12 [Example 69]	245 to 248 °C
O=c1[nH]c(Cc2ccc3[nH]ncc3c2)nc2c1c(C1CC1)nn2-c1c(Cl)cc(Cl)cc1Cl [Example 72]	274 to 283 °C
O=c1[nH]c(Cc2ccc([N+](=O)[O-])c(O)c2)nc2c1c(C1CC1)nn2-c1c(Cl)cc(Cl)cc1Cl [Example 76]	259 to 260 °C
COc1ccc(Cc2nc3c(c(C(F)(F)F)nn3-c3c(Cl)cc(Cl)cc3Cl)c(=O)[nH]2)cc1 [Example 82]	263 to 265 °C
CC(C)c1[nH]n(-c2c(Cl)cc(Cl)cc2Cl)c2nc(Cc3ccc(N(C(=O)OC(C)(C)C)C(=O)[C@@H]4CCCN4)cc3)nc(=O)c1-2 [Example 113, (S)-1-(2,4,6-Trichlorophenyl)-3-isopropyl-6-(4-(N-t-butoxycarbonylprolinamido)benzyl)pyrazolo[3,4-d]pyrimidin-4-one]	225 to 226 °C
CCOC(=O)Cc1ccc(Cc2nc3n(-c4c(Cl)cccc4Cl)[nH]c(C(C)C)c-3c(=O)n2)cc1 [Example 122, 1-(2,6-Dichlorophenyl)-3-isopropyl-6-(4-(carbethoxymethyl)benzyl)pyrazolo[3,4-d]pyrimidin-4-one]	168 to 169 °C
CC(C)c1[nH]n(-c2c(Cl)cccc2Cl)c2nc(Cc3ccc(CC(=O)O)cc3)nc(=O)c1-2 [Example 123, 1-(2,6-Dichlorophenyl)-3-isopropyl-6-(4-(carboxymethyl)benzyl)pyrazolo[3,4-d]pyrimidin-4-one]	212 to 214 °C
CC(C)c1[nH]n(-c2c(Cl)cccc2Cl)c2nc(Cc3ccc(CC(=O)NCCN(C)C)cc3)nc(=O)c1-2 [Example 124, 1-(2,6-Dichlorophenyl)-3-isopropyl-6-(4-(2-(N,N-dimethylamino)ethylaminocarbonylmethyl)benzyl)pyrazolo[3,4-d]pyrimidin-4-one]	170 to 172 °C
Cc1cccc(Cl)c1-n1[nH]c(C(C)C)c2c(=O)nc(Cc3ccc(N)cc3)nc1-2 [Example 127, 1-(2-Chloro-6-methylphenyl)-3-isopropyl-6-(4-aminobenzyl)pyrazolo[3,4-d]pyrimidin-4-one]	206 to 207 °C
CC(C)c1[nH]n(-c2c(Cl)cc(Cl)cc2Cl)c2nc(Cc3ccc(NC(=O)OCCN(C)C)cc3)nc(=O)c1-2 [Example 133, 1-(2,4,6-Trichlorophenyl)-3-isopropyl-6-(4-(2-(dimethylamino)ethoxycarbonylamino)benzyl)pyrazolo[3,4-d]pyrimidin-4-one]	218 to 220 °C
COc1cccc(Cc2nc3n(-c4c(Cl)cc(C=O)cc4Cl)[nH]c(C(C)C)c-3c(=O)n2)c1 [Example 138, 1-(2,6-Dichloro-4-formylphenyl)-3-isopropyl-6-(3-methoxybenzyl)pyrazolo[3,4-d]pyrimidin-4-one]	212 to 214 °C
CC(C)c1nn(-c2ccccc2Cl)c2nc(Cc3cccc(O)c3)[nH]c(=O)c12 [Example 143]	227 to 228 °C
CSc1nn(-c2ccccc2Cl)c2nc(Cc3ccc(O)cc3)[nH]c(=O)c12 [Example 149]	243 to 244 °C
COc1ccc(Cc2nc3c(c(SC)nn3-c3ccccc3Cl)c(=O)[nH]2)cc1 [Example 150]	227 to 228 °C
CCc1nn(-c2ccccc2Br)c2nc(Cc3cccc(OC)c3)[nH]c(=O)c12 [Example 151]	178 to 180 °C

Structure (SMILES)	melting point
CCc1nn(-c2ccccc2Br)c2nc(Cc3ccc(N)cc3)[nH]c(=O)c12 [Example 152]	246 to 249 °C
CCc1nn(-c2ccccc2Br)c2nc(Cc3cccc(O)c3)[nH]c(=O)c12 [Example 153]	199 to 201 °C
CCc1nn(-c2ccccc2F)c2nc(Cc3cccc(OC)c3)[nH]c(=O)c12 [Example 154]	193 to 194 °C
CCc1nn(-c2ccccc2F)c2nc(Cc3cccc(O)c3)[nH]c(=O)c12 [Example 155]	235 to 237 °C
CCc1nn(-c2ccccc2F)c2nc(Cc3ccc(N)cc3)[nH]c(=O)c12 [Example 157]	231 to 233 °C
CCc1nn(-c2c(Cl)cc(C(F)(F)F)cc2Cl)c2nc(Cc3cccc(OC)c3)[nH]c(=O)c12 [Example 166]	192 to 193 °C
CCc1nn(-c2c(Cl)cc(C(F)(F)F)cc2Cl)c2nc(Cc3ccc(OC)cc3)[nH]c(=O)c12 [Example 168]	240 to 241 °C
CCc1nn(-c2c(Cl)cc(Br)cc2Cl)c2nc(Cc3ccc(O)cc3)[nH]c(=O)c12 [Example 169]	284 to 286 °C
CCc1nn(-c2c(Cl)cc(Br)cc2Cl)c2nc(Cc3cccc(O)c3)[nH]c(=O)c12 [Example 170]	242 to 244 °C
CCc1nn(-c2c(Cl)cccc2Cl)c2nc(Cc3ccc(O)cc3)[nH]c(=O)c12 [Example 171]	262 to 263 °C
CCc1nn(-c2c(Cl)cccc2Cl)c2nc(Cc3cccc(O)c3)[nH]c(=O)c12 [Example 173]	242 to 244 °C
CCc1nn(-c2c(Cl)cc(Br)cc2Cl)c2nc(Cc3cccc(OC)c3)[nH]c(=O)c12 [Example 174]	232 to 233 °C
CCc1nn(-c2c(Cl)cc(Br)cc2Cl)c2nc(Cc3ccc(OC)cc3)[nH]c(=O)c12 [Example 175]	252 to 253 °C
CCc1nn(-c2c(Cl)cccc2Cl)c2nc(Cc3ccc(OC)cc3)[nH]c(=O)c12 [Example 176]	220 to 222 °C
CCc1nn(-c2c(Cl)cccc2Cl)c2nc(Cc3cccc(OC)c3)[nH]c(=O)c12 [Example 177]	186 to 187 °C
CSc1nn(-c2c(F)cccc2Cl)c2nc(Cc3ccc(O)cc3)[nH]c(=O)c12 [Example 178]	267 to 268 °C
CSc1nn(-c2c(F)cccc2Cl)c2nc(Cc3cccc(O)c3)[nH]c(=O)c12 [Example 179]	252 to 253 °C
CSc1nn(-c2c(Cl)cc(Br)cc2Cl)c2nc(Cc3ccc(O)cc3)[nH]c(=O)c12 [Example 180]	255 to 256 °C
COc1ccc(Cc2nc3c(c(SC)nn3-c3c(F)cccc3Cl)c(=O)[nH]2)cc1 [Example 181]	193 to 194 °C
